From PubChem BioAssay (NCI)
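Dose response: 5 concentrations. Exposure: 48 h. Format: 96-well plates. Endpoint: linear interpolation; highest concentration if not reached. Here, GI50 denotes the concentration required for 50% inhibition of growth. TGI is the concentration that stops growth completely.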

Experiments:
Assay in all cases: NCI-60 cell line screen, 48 h
[1] = tested on: SW-620 colon
[2] = tested on: MALME-3M melanoma
[3] = tested on: HOP-62 NSCLC
[4] = tested on: OVCAR-4 ovarian
[5] = tested on: SR leukemia
[6] = tested on: COLO 205 colon
[7] = tested on: OVCAR-5 ovarian
[8] = tested on: A498 renal
[9] = tested on: SF-539 CNS
[10] = tested on: SF-268 CNS
[11] = tested on: NCI-H460 lung
[12] = tested on: SF-295 CNS
[13] = tested on: MDA-MB-231 breast
[14] = tested on: UACC-62 melanoma
[15] = tested on: CCRF-CEM leukemia
[16] = tested on: K-562 leukemia
[17] = tested on: NCI/ADR-RES ovarian
[18] = tested on: SNB-75 CNS
[19] = tested on: HL-60(TB) leukemia
[20] = tested on: MDA-MB-435
[21] = tested on: NCI-H226 lung
[22] = tested on: HCT-116 colon
[23] = tested on: NCI-H23 lung
[24] = tested on: LOX IMVI melanoma
[25] = tested on: KM12 colon
[26] = tested on: CAKI-1 renal
[27] = tested on: U251 CNS
[28] = tested on: TK-10 renal
[29] = tested on: PC-3 prostate
[30] = tested on: RPMI-8226 leukemia
[31] = tested on: IGROV1 ovarian
[32] = tested on: HCC-2998 colon
[33] = tested on: UACC-257 melanoma
[34] = tested on: SNB-19 CNS
[35] = tested on: SN12C renal
[36] = tested on: 786-0 renal
[37] = tested on: HT29 colon
[38] = tested on: ACHN renal
[39] = tested on: EKVX NSCLC
[40] = tested on: A549 NSCLC
[41] = tested on: M14 melanoma
[42] = tested on: MDA-MB-468 breast
[43] = tested on: SK-OV-3 ovarian
[44] = tested on: BT-549 breast
[45] = tested on: MOLT-4 leukemia
[46] = tested on: NCI-H522 lung
[47] = tested on: T-47D breast
[48] = tested on: HCT-15 colon
[49] = tested on: MCF7 breast
[50] = tested on: OVCAR-8 ovarian
[51] = tested on: SK-MEL-2 melanoma
[52] = tested on: HOP-92 NSCLC
[53] = tested on: SK-MEL-5 melanoma
[54] = tested on: UO-31 renal
[55] = tested on: SK-MEL-28 melanoma
[56] = tested on: OVCAR-3 ovarian
[57] = tested on: RXF 393 renal
[58] = tested on: DU-145 prostate
[59] = tested on: HS 578T breast

## CCOc1ccc2ncc(C#Cc3cncc(C(=O)Nc4ccc(CN5CCN(C)CC5)c(C(F)(F)F)c4)c3)n2n1
[1]
  GI50: 0.287 µM
  TGI: 2.3 µM
[2]
  GI50: 0.353 µM
  TGI: 1.71 µM
[3]
  GI50: 1.25 µM
  TGI: 14.4 µM
[4]
  GI50: 3.56 µM
  TGI: 28.7 µM
[5]
  GI50: 0.723 µM
  TGI: 9.4 µM
[6]
  GI50: 0.272 µM
  TGI: 0.883 µM
[7]
  GI50: 0.802 µM
  TGI: 12 µM
[8]
  GI50: 6.96 µM
  TGI: 24.3 µM
[9]
  GI50: 0.143 µM
  TGI: 0.755 µM
[10]
  GI50: 1.92 µM
  TGI: 17.6 µM
[11]
  GI50: 0.534 µM
  TGI: 16.9 µM
[12]
  GI50: 0.918 µM
  TGI: 19 µM
[13]
  GI50: 0.362 µM
  TGI: 2.87 µM
[14]
  GI50: 9.92 µM
  TGI: 24.5 µM
[15]
  GI50: 0.0642 µM
  TGI: > 21.2 µM
[16]
  TGI: 1.36 µM
[17]
  GI50: 1.16 µM
  TGI: 2.66 µM
[18]
  GI50: 3.31 µM
  TGI: 16.3 µM
[19]
  GI50: 0.521 µM
  TGI: 16.3 µM
[20]
  GI50: 0.592 µM
  TGI: 5.15 µM
[21]
  GI50: 0.151 µM
  TGI: 1.85 µM
[22]
  GI50: 0.225 µM
  TGI: 1.56 µM
[23]
  GI50: 0.393 µM
  TGI: 4.9 µM
[24]
  GI50: 0.608 µM
  TGI: 1.94 µM
[25]
  TGI: 10.5 µM
[26]
  GI50: 0.79 µM
  TGI: 13.2 µM
[27]
  GI50: 11.7 µM
  TGI: 30.9 µM
[28]
  GI50: 8.09 µM
  TGI: 23.3 µM
[29]
  GI50: 1.52 µM
  TGI: 19.2 µM
[30]
  GI50: 1.06 µM
  TGI: 4.38 µM
[31]
  GI50: 2.18 µM
  TGI: 19.1 µM
[32]
  GI50: 2.34 µM
  TGI: 20.1 µM
[33]
  GI50: 2.16 µM
  TGI: 11.4 µM
[34]
  GI50: 6.37 µM
  TGI: 21.7 µM
[35]
  GI50: 0.643 µM
  TGI: 11.7 µM
[36]
  GI50: 1.56 µM
  TGI: 2.95 µM
[37]
  GI50: 0.475 µM
  TGI: 2.39 µM
[38]
  GI50: 0.561 µM
  TGI: 15 µM
[39]
  GI50: 0.704 µM
  TGI: 17.8 µM
[40]
  GI50: 1.16 µM
  TGI: 22.7 µM
[41]
  GI50: 0.416 µM
  TGI: 1.79 µM
[42]
  GI50: 1.66 µM
  TGI: 11.1 µM
[43]
  GI50: 4.64 µM
  TGI: 19.7 µM
[44]
  GI50: 1.79 µM
  TGI: 12.4 µM
[45]
  GI50: 0.316 µM
  TGI: 3.35 µM
[46]
  GI50: 1.4 µM
  TGI: 21.9 µM
[47]
  GI50: 17.8 µM
  TGI: > 70.5 µM
[48]
  GI50: 0.357 µM
  TGI: 1.66 µM
[49]
  GI50: 0.208 µM
  TGI: 1.74 µM
[50]
  GI50: 3.21 µM
  TGI: 10.6 µM
[51]
  GI50: 1.34 µM
  TGI: 11.9 µM
[52]
  GI50: 0.206 µM
  TGI: 1.34 µM
[53]
  GI50: 1.89 µM
  TGI: 7.25 µM
[54]
  GI50: 2.2 µM
  TGI: 13.7 µM
[55]
  GI50: 1.3 µM
  TGI: 2.66 µM
[56]
  GI50: 4.5 µM
  TGI: 24.6 µM
[57]
  GI50: 0.89 µM
  TGI: 2.34 µM
[58]
  GI50: 1.1 µM
  TGI: 17.3 µM
[59]
  GI50: 0.283 µM
  TGI: 3.11 µM

## COc1ccc2[nH]c(O)c(N=NC(=O)COc3ccc(NC(=O)Nc4ccc(Cl)cc4)cc3)c2c1
[1]
  GI50: 2.61 µM
  TGI: 13.2 µM
[2]
  GI50: 1.77 µM
  TGI: 3.61 µM
[3]
  GI50: 2.54 µM
  TGI: 6.4 µM
[4]
  GI50: 2.94 µM
  TGI: 11 µM
[5]
  GI50: 4.15 µM
  TGI: > 100 µM
[6]
  GI50: 3.63 µM
  TGI: 13.2 µM
[7]
  GI50: 6.34 µM
  TGI: 20 µM
[8]
  GI50: 17.1 µM
  TGI: 31.8 µM
[9]
  GI50: 2.42 µM
  TGI: 6.86 µM
[10]
  GI50: 3.3 µM
  TGI: 10.4 µM
[11]
  GI50: 1.84 µM
  TGI: 3.97 µM
[12]
  GI50: 6.63 µM
  TGI: 20.1 µM
[13]
  GI50: 1.8 µM
  TGI: 3.75 µM
[14]
  GI50: 2.23 µM
  TGI: 5.8 µM
[15]
  GI50: 5.39 µM
  TGI: 26.3 µM
[16]
  GI50: 5.36 µM
  TGI: > 100 µM
[17]
  GI50: > 100 µM
  TGI: > 100 µM
[18]
  GI50: 8.94 µM
  TGI: 27.7 µM
[19]
  GI50: 23.6 µM
  TGI: > 100 µM
[20]
  GI50: 1.75 µM
  TGI: 4.77 µM
[21]
  GI50: 3.74 µM
  TGI: 16.8 µM
[22]
  GI50: 2.96 µM
  TGI: 11.5 µM
[23]
  GI50: 2.68 µM
  TGI: 8.54 µM
[24]
  GI50: 1.87 µM
  TGI: 3.81 µM
[25]
  GI50: 3.21 µM
  TGI: 13.4 µM
[26]
  GI50: 16.6 µM
  TGI: 33.7 µM
[27]
  GI50: 4.16 µM
  TGI: 14.5 µM
[28]
  GI50: 20.8 µM
  TGI: 48.3 µM
[29]
  GI50: 3.39 µM
  TGI: 14.9 µM
[30]
  GI50: 6.58 µM
  TGI: 68.8 µM
[31]
  GI50: 8.74 µM
  TGI: 21.6 µM
[32]
  GI50: 5.33 µM
  TGI: 25.9 µM
[33]
  GI50: 13.1 µM
  TGI: 28.2 µM
[34]
  GI50: 3 µM
  TGI: 10.9 µM
[35]
  GI50: 3.03 µM
  TGI: 11.4 µM
[36]
  GI50: 7.32 µM
  TGI: 24.9 µM
[37]
  GI50: 3.22 µM
  TGI: 14 µM
[38]
  GI50: 19.3 µM
  TGI: 58.8 µM
[39]
  GI50: 18.7 µM
  TGI: > 100 µM
[40]
  GI50: 8.39 µM
  TGI: 44.4 µM
[41]
  GI50: 2.61 µM
  TGI: 7.88 µM
[42]
  GI50: 1.85 µM
  TGI: 4.61 µM
[43]
  GI50: 12.7 µM
  TGI: 27.6 µM
[44]
  GI50: 12.1 µM
  TGI: 26.6 µM
[45]
  GI50: 9.72 µM
  TGI: 51.2 µM
[46]
  GI50: 2.23 µM
  TGI: 5.85 µM
[47]
  GI50: 9.57 µM
  TGI: 23.9 µM
[48]
  GI50: > 100 µM
  TGI: > 100 µM
[49]
  GI50: 2.88 µM
  TGI: 10.2 µM
[50]
  GI50: 10.5 µM
  TGI: 37.9 µM
[51]
  GI50: 2.08 µM
  TGI: 4.41 µM
[52]
  GI50: 2.43 µM
  TGI: 7.31 µM
[53]
  GI50: 5.9 µM
  TGI: 18.9 µM
[54]
  GI50: > 100 µM
  TGI: > 100 µM
[55]
  GI50: 1.81 µM
  TGI: 3.56 µM
[56]
  GI50: 2.21 µM
  TGI: 6.34 µM
[57]
  GI50: 6.26 µM
  TGI: 22.2 µM
[58]
  GI50: 4.14 µM
  TGI: 20.7 µM
[59]
  GI50: 2.8 µM
  TGI: 13.4 µM
